Several values for one entry are separate records, joined by “and”; a condition that tells them apart may be missing. Equal values may be shown once. Read-outs that look alike come from different tables or passages of the source.
Legend:
[1] = Photophysical properties (absorption, emission, quantum yield, lifetime) in solvents; assay type: physicochemical; settings: for Φf: absolute quantum yield, integrating sphere; for τave: intensity weighted average lifetime; for kr: kr=ΦF/τave; for emission intensity from water relative to emission intensity from toluene: matched absorption, water with 10 % DMSO
From the text: The absorption and emission spectra of MB2P and MB2PI are shown in Figure 3, in a range of solvents across polarities. […] The absorption maxima is largely unaffected by solvent, similar to B2P/B2PI. The extinction coefficient is also modestly affected for MB2P but does vary with solvent for MB2PI, although the change is not correlated with solvent polarity. All compounds also show characteristic perylene absorption features between 400 and 430 nm. Also consistent with this previous study, the emission spectra are strongly solvent dependent. Intensely emissive from non‐polar media, MB2P and MB2PI are minimally emissive in polar (ethanol and DMSO) and aqueous media, (with 10 % DMSO for solubilisation). For example, under matched absorption conditions used to generate Figure 3, the emission intensity from water was 0.13 % (MB2P) and 1.6 % (MB2PI) of the emission intensity from toluene (see Figure S20).
Figure 3 Right, Absorption spectra of (A) MB2P and (B) MB2PI in different solvents at 10 μM, and, left, their respective emission. Excitation wavelength 532 nm, data recorded with 2.5–2.5 nm slit widths.

[2] = system: MCF‐7 cells; assay: Phototoxicity, 470 nm LED, alamar blue assay; assay type: cell-based; settings: for Photo Index (PI), ratio of dark IC50 to light IC50: 17 J/cm^2, 470 nm LED; for IC50: Homo sapiens, MCF7, light or radiation study, 17 h incubation, 470 nm LED, 17±1.64 J/cm^2 (2.5 mW/cm^2 for 2 h)
Protocol: The phototoxicity of the BODIPY's were assessed to compare the light induced toxicity of the iodinated compounds with their non‐iodinated counterparts. CHO and MCF‐7 cells were treated with B2P, B2PI, MB2P, and MB2PI in a concentration range from 0.10–1 μM for 17 h, the wells were decanted and filled with 100 μL phenol red free media prior to irradiation with a 470 nm LED (17 J/cm^2). Cell viability was determined using the alamar blue cell viability assay and % viability was calculated relative to untreated control wells.
Dark‐ and photo‐toxicity studies were performed by seeding CHO and MCF‐7 cells in clear 96‐well plates (Nunc) and treating with varying concentrations of B2P, MB2P, B2PI and MB2PI. Phototoxicity experiments were carried out using a 470 nm LED. For hypoxic phototoxicity studies, hypoxia was mimicked by adding CoCl2 to the cells prior to irradiation. Cell viability was determined using the alamar blue assay and absorbance measured with a BMG LABTECH CLARIOstar plate reader. […]
For 24 h dark toxicity studies, 50, 10, 5 and 1 µM stock concentrations of B2P, B2PI, MB2P and MB2PI were prepared in media to a final DMSO concentration of ≤1%. 100 µL of each concentration was added to the wells in triplicate and the plates incubated for 24 h in the dark at 37°C. Cell viability of all plate-based studies was assessed using the alamar blue assay. A 10% Resazurin-media solution (alamarBlue, Invitrogen) was added to the wells and incubated for 5 h in the absence of light. Absorbance was measured using a BMG LABTECH CLARIOstar plate reader at 570 nm and 600 nm (corrected for background subtraction). Cell viability is presented as a percentage (%) compared to untreated control wells. Plates were performed in triplicate.
Phototoxicity and dark control plates were performed by incubating CHO or MCF-7 cells with B2P, B2PI, MB2P and MB2PI for 17 h to allow uptake, emptying the wells, replacing with phenol red free media, and irradiating at a total dose of 17 ± 1.64 J/cm2 (2 h at 2.37 ± 0.23 mW/cm2) using a 470 nm LED (TeleOpto LEDA-X LED driver and array). Control plates were incubated in the dark during the irradiation period (2 h). After irradiation, the cells were incubated in the dark overnight to allow for cell recovery. Irradiation conditions were tested on untreated cells to confirm cells remained viable at this dose before any experiments were performed and each phototoxicity plate included untreated test wells for cell viability comparison. Viability was determined using the alamar blue assay as per the cytotoxicity

[3] = set-up: method as in PMID 36802283; settings: cited from earlier work

With `CC1=C(c2ccc3c4cccc5cccc(c6cccc2c63)c54)C(C)=[N+]2C1=C(c1c(C)cc(C)cc1C)c1c(C)cc(C)n1[B-]2(F)F` [MB2P] the “Mol. Bright” value ([1]; Dioxane) was 20516, the “Stokes Shift” value ([1]; Dioxane) was 3131 cm⁻¹ and the knr ([1]; Dioxane) was 25 10^7 s^−1. The λem ([1]; Dioxane) was 614 nm, the τ1 ([1]; Dioxane) was 3.1±0.1 ns and the ϵ ([1]; Dioxane) was 89200 M⁻¹ cm⁻¹. For the same compound, the Φf ([1]; Dioxane) was 0.23, the τave ([1]; Dioxane) was 3.1±0.1 ns and the kr ([1]; Dioxane) was 7.4 10^7 s^−1. For the same compound, the “Mol. Bright” value ([1]; Toluene) was 32148, the “Stokes Shift” value ([1]; Toluene) was 3002 cm⁻¹ and the knr ([1]; Toluene) was 23 10^7 s^−1. The λabs ([1]; Toluene) was 517 nm, the λem ([1]; Toluene) was 612 nm and the τ1 ([1]; Toluene) was 2.8±0.0 ns. For the same compound, the ϵ ([1]; Toluene) was 89300 M⁻¹ cm⁻¹, the Φf ([1]; Toluene) was 0.36 and the τave ([1]; Toluene) was 2.8±0.0 ns. The kr ([1]; Toluene) was 12.9 10^7 s^−1, the “emission intensity from water relative to emission intensity from toluene” value [1] was 0.13% and the “Photo Index (PI), ratio of dark IC50 to light IC50” value (“Photo Index (PI), ratio” below) [2] was > 109. For the same compound, the IC50 [2] was 457 nM.
With `CC1=C(c2ccc3c4cccc5cccc(c6cccc2c63)c54)C(C)=[N+]2C1=C(c1c(C)cc(C)cc1C)c1c(C)c(I)c(C)n1[B-]2(F)F` [MB2PI] the “Amp of τ1” value ([1]; Dioxane) was 2.5%, the “Amp of τ2” value ([1]; Dioxane) was 97.5% and the “Mol. Bright” value ([1]; Dioxane) was 4374. The “Stokes Shift” value ([1]; Dioxane) was 3049 cm⁻¹, the knr ([1]; Dioxane) was 85 10^7 s^−1 and the λabs ([1]; Dioxane) was ~532 nm. For the same compound, the λem ([1]; Dioxane) was 635 nm, the τ1 ([1]; Dioxane) was 4.0±0.1 ns and the τ2 ([1]; Dioxane) was 0.7 ns and 0.7±0.01 ns. For the same compound, the ϵ ([1]; Dioxane) was 72900 M⁻¹ cm⁻¹, the Φf ([1]; Dioxane) was 0.06 and the τave ([1]; Dioxane) was 1.1±0.0 ns. For the same compound, the kr ([1]; Dioxane) was 5.73 10^7 s^−1, the “Amp of τ1” value ([1]; Toluene) was 5.6% and the “Amp of τ2” value ([1]; Toluene) was 94.4%. For the same compound, the “Mol. Bright” value ([1]; Toluene) was 6534, the “Stokes Shift” value ([1]; Toluene) was 2854 cm⁻¹ and the knr ([1]; Toluene) was 114 10^7 s^−1. For the same compound, the λabs ([1]; Toluene) was 534 nm, the λem ([1]; Toluene) was 630 nm and the τ1 ([1]; Toluene) was 1.6±0.1 ns. For the same compound, the τ2 ([1]; Toluene) was 0.7 ns and 0.7±0.01 ns, the ϵ ([1]; Toluene) was 72600 M⁻¹ cm⁻¹ and the Φf ([1]; Toluene) was 0.09. The τave ([1]; Toluene) was 0.8±0.0 ns, the kr ([1]; Toluene) was 11.2 10^7 s^−1 and the “emission intensity from water relative to emission intensity from toluene” value [1] was 1.6%. For the same compound, the “Photo Index (PI), ratio” value [2] was > 218 and the IC50 [2] was 229 nM.
In the case of `CC1=CC(C)=[N+]2C1=C(c1ccccc1)c1c(C)c(-c3ccc4c5cccc6cccc(c7cccc3c74)c65)c(C)n1[B-]2(F)F` [B2P], the “Amp of τ1” value ([3]; Dioxane) is given as 5.3%, the “Amp of τ2” value ([3]; Dioxane) is given as 94.7% and the “Mol. Bright” value ([3]; Dioxane) is given as 6588. The “Stokes Shift” value ([3]; Dioxane) was 3417 cm⁻¹, the knr ([3]; Dioxane) was 44 10^7 s^−1 and the kr ([3]; Dioxane) was 4.6 10^7 s^−1. The Φf ([3]; Dioxane) was 0.09, the λabs ([3]; Dioxane) was 515 nm and the λem ([3]; Dioxane) was 625 nm. For the same compound, the τ1 ([3]; Dioxane) was 4.1±0.2 ns, the τ2 ([3]; Dioxane) was 1.8±0.0 ns and the τave ([3]; Dioxane) was 2.0±0.0 ns. For the same compound, the ϵ ([3]; Dioxane) was 73200 M⁻¹ cm⁻¹, the “Mol. Bright” value ([3]; Toluene) was 16884 and the “Stokes Shift” value ([3]; Toluene) was 3071 cm⁻¹. The knr ([3]; Toluene) was 79 10^7 s^−1, the kr ([3]; Toluene) was 2.6 10^7 s^−1 and the Φf ([3]; Toluene) was 0.21. For the same compound, the λabs ([3]; Toluene) was 518 nm, the λem ([3]; Toluene) was 616 nm and the τ1 ([3]; Toluene) was 2.5±0.0 ns. For the same compound, the τave ([3]; Toluene) was 2.5±0.01 ns, the ϵ ([3]; Toluene) was 80400 M⁻¹ cm⁻¹ and the “Photo Index (PI), ratio” value [2] was > 182. The IC50 [2] was 274 nM.
In the case of `CC1=C(I)C(C)=[N+]2C1=C(c1ccccc1)c1c(C)c(-c3ccc4c5cccc6cccc(c7cccc3c74)c65)c(C)n1[B-]2(F)F` [B2PI], the “Mol. Bright” value ([3]; Dioxane) is listed as 2028, the “Stokes Shift” value ([3]; Dioxane) is listed as 3232 cm⁻¹ and the knr ([3]; Dioxane) is listed as 68 10^7 s^−1. For the same compound, the kr ([3]; Dioxane) was 1.8 10^7 s^−1, the Φf ([3]; Dioxane) was 0.03 and the λabs ([3]; Dioxane) was 531 nm. For the same compound, the λem ([3]; Dioxane) was 641 nm, the τave ([3]; Dioxane) was 1.4±0.01 ns and the ϵ ([3]; Dioxane) was 67600 M⁻¹ cm⁻¹. For the same compound, the “Amp of τ1” value ([3]; Toluene) was 7.2%, the “Amp of τ2” value ([3]; Toluene) was 92.8% and the “Mol. Bright” value ([3]; Toluene) was 1899. The “Stokes Shift” value ([3]; Toluene) was 3003 cm⁻¹, the knr ([3]; Toluene) was 32 10^7 s^−1 and the kr ([3]; Toluene) was 8.5 10^7 s^−1. For the same compound, the Φf ([3]; Toluene) was 0.03, the λabs ([3]; Toluene) was 534 nm and the λem ([3]; Toluene) was 636 nm. The τ1 ([3]; Toluene) was 2.9±0.1 ns, the τ2 ([3]; Toluene) was 0.7±0.01 ns and the τave ([3]; Toluene) was 1.2±0.0 ns. For the same compound, the ϵ ([3]; Toluene) was 63300 M⁻¹ cm⁻¹ and the “Photo Index (PI), ratio” value [2] was > 213.

From paper PMC11653243, “Enhancing Phototoxicity in BODIPY‐Perylene Charge Transfer Dyads by Combined Iodination and Mesylation” (Chemistry (Weinheim an Der Bergstrasse, Germany), 2024)
